{"source": "patent US12398111B2", "about": "“Triazine compounds and pharmaceutical use thereof” (Japan Tobacco Inc., priority 2014, dated 2025)"}
{"target": "T1, human mPGES-1 (Homo sapiens, UniProt O14684)", "T1 construct": "made in house; host or cells: FreeStyle CHO-S cells (Chinese hamster ovary), transient transfection with pcDNA3.1(+)/human mPGES-1; microsome fraction used", "T1 sequence (O14684 1-152)": "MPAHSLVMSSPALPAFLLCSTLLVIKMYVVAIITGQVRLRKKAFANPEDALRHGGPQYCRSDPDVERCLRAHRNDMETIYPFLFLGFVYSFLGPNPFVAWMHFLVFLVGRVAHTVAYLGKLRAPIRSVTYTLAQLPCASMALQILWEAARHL", "assay": "Evaluation of human mPGES-1 enzyme inhibitory activity (PGE2 measured by HTRF, microsome fraction of CHO-S cells expressing human mPGES-1)", "type": "biochemical", "conditions": "IC50 value; microsome fraction of CHO-S cells expressing human mPGES-1, PGE2 by HTRF", "experimental": "That is, the amount of PGE2 produced by human mPGES-1 in the presence of a test article was measured by the HTRF (homogeneous time resolved fluorescence) method, based on which the human mPGES-1 enzyme inhibitory activity of the test article was determined.\n1) Preparation of Human mPGES-1 Expressing Cell Microsome Fraction\nA DNA fragment containing human mPGES-1, which is added with a BamHI recognition cleavage sequence immediately before the translation initiation codon and an EcoRI recognition cleavage sequence immediately after the translation termination codon was amplified by the PCR (Polymerase Chain Reaction) method using a human mPGES-1 expression plasmid DNA (pME-18S/iPGES-1) prepared in-house as a template. The purified DNA fragment was digested with BamHI and EcoRI, and ligated to pcDNA3.1(+) (Invitrogen, model number V790-20), similarly digested with BamHI and EcoRI, by using a DNA Ligation kit ver.2.1 (Takara Bio, model number 6022). The human mPGES-1 expression plasmid DNA was isolated from Escherichia coli DH5a (TOYOBO, model number DNA-903) transformed with the obtained ligation product. The base sequence of human mPGES-1 cloned to a vector was determined by the Dye Terminator method by using BigDye Terminator v3.1 Cycle Sequencing Kit (Applied Biosystems, #4337455).\nHuman mPGES-1 expression plasmid DNA was transfected into Chinese hamster ovary-derived cells (FreeStyle CHO-S Cell, Invitrogen, #R800-07) by using a transgene reagent (FreeStyle MAX Reagent (Invitrogen, #16447-100)), and cultured with shaking (8% CO2, 37° C.) in a medium containing 8 mmol/L L-glutamine (GIBCO FreeStyle CHO Expression Medium, Invitrogen, #12651-022) for 48 hr.\nThe CHO-S cells were suspended in Homogenate Buffer (100 mmol/L potassium phosphate (pH 7.4), 250 mmol/L Sucrose, 100 mmol/L EDTA, complete EDTA free (Roche, #1873580)). Using an ultrasonic disruptor UD-201 (Tomy Seiko), the suspended cells were disrupted at output:3, duty cycle:50 for 30 seconds. The precipitate was removed by centrifugation (1,000×g, 5 min, 4° C.), is and the supernatant was centrifuged (5,000×g, 10 min, 4° C.). The supernatant was further centrifuged (105,000×g, 60 min, 4° C.). The obtained precipitate was suspended in Resuspension Buffer (100 mmol/L potassium phosphate (pH 7.4), 250 mmol/L sucrose, 100 mmol/L EDTA, 10% glycerol) to give a microsome fraction.\nThe protein concentration of the microsome fraction was measured by the Bradford method (Protein Assay Kit, Bio-Rad). The microsome fraction was rapidly frozen in liquid nitrogen and preserved at −80° C. Human mPGES-1 in the microsome fraction was detected by Western Blot using rabbit anti-mPGES-1 polyclonal antibody (ThermoFisher Scientific, #PA1-10264).\n2) Evaluation of Human mPGES-1 Enzyme Inhibitory Activity\nA test article solution diluted with 0.1 mol/L potassium phosphate, pH 7.4 (hereinafter to be referred to as KPB) or DMSO (Nacalai Tesque, #13407-45) was added at 5 μL/well to 96 well V-bottom plate (Corning, #3363). The final DMSO concentration during the reaction was set to 2% (v/v). Furthermore, a microsome fraction of CHO-S cells expressing human mPGES-1, which was diluted with reduced GSH (12.5 mmol/L KPB solution, SIGMA, #G6529-25G) such that the protein concentration was 5 μg/mL, was added at 20 μL/well. The amount of the microsome fraction used is the amount of microsome fraction within a range where the amount of PGE2 produced under the reaction conditions shown below and the amount of microsome fraction used show linearity. To the blank was added reduced GSH (12.5 mmol/L KPB solution) at 20 μL/well.", "units": {"IC50": "pM"}}
{"smiles": "CCO[C@@](C)(C(=O)NCc1ccc(Cl)c(-c2nc(O)nc(-c3ccccc3)n2)c1)C(F)(F)F", "note": "[Example 1-97]", "IC50": 9100}
{"smiles": "CC(C)(C(=O)NCc1ccc(Cl)c(-c2nc(O)nc(-c3cccc(OCC(F)(F)F)c3)n2)c1)C(F)(F)F", "note": "[Example 1-99]", "IC50": 700}
{"smiles": "CC(C)(C(=O)NCc1ccc(Cl)c(-c2nc(O)nc(-c3cccc(C4CCC4)c3)n2)c1)C(F)(F)F", "note": "[Example 1-100]", "IC50": 900}
{"smiles": "CC(C)Cc1ccc(-c2nc(O)nc(-c3cc(CC(=O)NC(C)(C)C)ccc3Cl)n2)cc1", "note": "[Example 1-101]", "IC50": 5800}
{"smiles": "CCCc1cccc(-c2nc(O)nc(-c3cc(CNC(=O)C(C)(C)C(F)(F)F)ccc3Cl)n2)c1", "note": "[Example 1-102]", "IC50": 900}
{"smiles": "CO[C@](C)(C(=O)NCc1ccc(Cl)c(-c2nc(O)nc(-c3cccc(OC(F)(F)F)c3)n2)c1)C(F)(F)F", "note": "[Example 1-103]", "IC50": 1300}
{"smiles": "CCCc1cccc(-c2nc(O)nc(-c3cc(CNC(=O)[C@@](C)(OC)C(F)(F)F)ccc3Cl)n2)c1", "note": "[Example 1-104]", "IC50": 1500}
{"smiles": "CO[C@](C)(C(=O)NCc1ccc(Cl)c(-c2nc(O)nc(-c3ccc(C)c(F)c3)n2)c1)C(F)(F)F", "note": "[Example 1-105]", "IC50": 700}
{"smiles": "CO[C@](C)(C(=O)NCc1ccc(Cl)c(-c2nc(O)nc(-c3ccc(F)c(C)c3)n2)c1)C(F)(F)F", "note": "[Example 1-106]", "IC50": 700}
{"smiles": "CC(C)c1cccc(-c2nc(O)nc(-c3cc(CNC(=O)C(C)(C)C(F)(F)F)ccc3Cl)n2)c1", "note": "[Example 1-107]", "IC50": 1200}
{"smiles": "CO[C@](C)(C(=O)NCc1ccc(Cl)c(-c2nc(O)nc(-c3cccc(C(C)C)c3)n2)c1)C(F)(F)F", "note": "[Example 1-108]", "IC50": 600}
{"smiles": "CCc1cccc(-c2nc(O)nc(-c3cc(CNC(=O)C(C)(C)C(F)(F)F)ccc3Cl)n2)c1", "note": "[Example 1-110]", "IC50": 900}
{"smiles": "Cc1cccc(-c2nc(O)nc(-c3cc(CNC(=O)C(C)(C)C(F)(F)F)ccc3Cl)n2)c1", "note": "[Example 1-111]", "IC50": 1200}
{"smiles": "Cc1cc(-c2nc(O)nc(-c3cc(CNC(=O)C(C)(C)C(F)(F)F)ccc3Cl)n2)ccc1Cl", "note": "[Example 1-112]", "IC50": 900}
{"smiles": "CC(C)(C(=O)NCc1ccc(Cl)c(-c2nc(O)nc(-c3ccc(OCC(F)(F)F)cc3)n2)c1)C(F)(F)F", "note": "[Example 1-113]", "IC50": 900}
{"smiles": "CC(C)CCOc1ccc(-c2nc(O)nc(-c3cc(CNC(=O)C(C)(C)C(F)(F)F)ccc3Cl)n2)cc1", "note": "[Example 1-114]", "IC50": 5900}
{"smiles": "CSc1ccc(-c2nc(O)nc(-c3cc(CNC(=O)C(C)(C)C(F)(F)F)ccc3Cl)n2)cc1", "note": "[Example 1-115]", "IC50": 600}
{"smiles": "CC(C)(C(=O)NCc1ccc(Cl)c(-c2nc(O)nc(-c3ccc(OCC4CCC4)cc3)n2)c1)C(F)(F)F", "note": "[Example 1-116]", "IC50": 2000}
{"smiles": "CC(C)c1cc(-c2nc(O)nc(-c3cc(CNC(=O)C(C)(C)C(F)(F)F)ccc3Cl)n2)ccc1F", "note": "[Example 1-117]", "IC50": 1600}
{"smiles": "CCCc1cc(-c2nc(O)nc(-c3cc(CNC(=O)C(C)(C)C(F)(F)F)ccc3Cl)n2)ccc1F", "note": "[Example 1-118]", "IC50": 1900}
{"smiles": "CC(F)(F)c1ccc(-c2nc(O)nc(-c3cc(CNC(=O)C(C)(C)C(F)(F)F)ccc3Cl)n2)cc1", "note": "[Example 1-119]", "IC50": 1000}
{"smiles": "CC(C)COc1ccc(-c2nc(O)nc(-c3cc(CNC(=O)C(C)(C)C(F)(F)F)ccc3Cl)n2)cc1C(F)(F)F", "note": "[Example 1-120]", "IC50": 48000}
{"smiles": "CCc1cccc(-c2nc(O)nc(-c3cc(CNC(=O)[C@@](C)(OC)C(F)(F)F)ccc3Cl)n2)c1", "note": "[Example 1-121]", "IC50": 1200}
{"smiles": "CO[C@](C)(C(=O)NCc1ccc(Cl)c(-c2nc(O)nc(-c3ccc(OCC(C)C)cc3)n2)c1)C(F)(F)F", "note": "[Example 1-123]", "IC50": 2300}
{"smiles": "CCc1cc(-c2nc(O)nc(-c3cc(CNC(=O)C(C)(C)C(F)(F)F)ccc3Cl)n2)ccc1F", "note": "[Example 1-124]", "IC50": 900}
{"smiles": "Cc1cc(-c2nc(O)nc(-c3cc(CNC(=O)C4(C(F)(F)F)CCC4)ccc3Cl)n2)ccc1F", "note": "[Example 1-125]", "IC50": 800}
{"smiles": "CO[C@](C)(C(=O)NCc1ccc(Cl)c(-c2nc(O)nc(-c3ccc(C(F)(F)F)cc3)n2)c1)C(F)(F)F", "note": "[Example 1-126]", "IC50": 800}
{"smiles": "Cc1cc(-c2nc(O)nc(-c3cc(CNC(=O)C4(C(F)(F)F)CC4)ccc3Cl)n2)ccc1F", "note": "[Example 1-127]", "IC50": 800}
{"smiles": "CCOc1ccc(-c2nc(O)nc(-c3cc(CNC(=O)C(C)(C)C(F)(F)F)ccc3Cl)n2)cc1", "note": "[Example 1-132]", "IC50": 300}
{"smiles": "CC(C)(C(=O)NCc1ccc(Cl)c(-c2nc(O)nc(-c3ccc(OCC4CC4)cc3)n2)c1)C(F)(F)F", "note": "[Example 1-133]", "IC50": 500}
{"smiles": "CC(C)(C(=O)NCc1ccc(Cl)c(-c2nc(O)nc(-c3ccc(O)cc3)n2)c1)C(F)(F)F", "note": "[Example 1-134]", "IC50": 4000}
{"smiles": "CO[C@](C)(C(=O)NCc1ccc(Cl)c(-c2nc(O)nc(-c3ccc(C(C)(F)F)cc3)n2)c1)C(F)(F)F", "note": "[Example 1-138]", "IC50": 500}
{"smiles": "COc1ccc(-c2nc(O)nc(-c3cc(CNC(=O)C(C)(C)C(F)(F)F)ccc3Cl)n2)cc1", "note": "[Example 1-139]", "IC50": 600}
{"smiles": "CC(C)Oc1ccc(-c2nc(O)nc(-c3cc(CNC(=O)C(C)(C)C(F)(F)F)ccc3Cl)n2)cc1", "note": "[Example 1-140]", "IC50": 500}
{"smiles": "CC(C)(C(=O)NCc1ccc(Cl)c(-c2nc(O)nc(-c3ccc(OC4CCC4)cc3)n2)c1)C(F)(F)F", "note": "[Example 1-141]", "IC50": 1100}
{"smiles": "CC(C)(C(=O)NCc1ccc(Cl)c(-c2nc(O)nc(-c3ccc(OCCC(F)(F)F)cc3)n2)c1)C(F)(F)F", "note": "[Example 1-142]", "IC50": 500}
{"smiles": "CC1(COc2ccc(-c3nc(O)nc(-c4cc(CNC(=O)C(C)(C)C(F)(F)F)ccc4Cl)n3)cc2)CCC1", "note": "[Example 1-143]", "IC50": 1000}
{"smiles": "COCCOc1ccc(-c2nc(O)nc(-c3cc(CNC(=O)C(C)(C)C(F)(F)F)ccc3Cl)n2)cc1", "note": "[Example 1-144]", "IC50": 900}
{"smiles": "CCC1(COc2ccc(-c3nc(O)nc(-c4cc(CNC(=O)C(C)(C)C(F)(F)F)ccc4Cl)n3)cc2)COC1", "note": "[Example 1-145]", "IC50": 500}
{"smiles": "CC#CCOc1ccc(-c2nc(O)nc(-c3cc(CNC(=O)C(C)(C)C(F)(F)F)ccc3Cl)n2)cc1", "note": "[Example 1-146]", "IC50": 400}
{"smiles": "Cc1cc(-c2nc(O)nc(-c3cc(CNC(=O)C(C)(C)C(F)(F)F)ccc3Cl)n2)ccc1C(F)(F)F", "note": "[Example 1-147]", "IC50": 800}
{"smiles": "CO[C@](C)(C(=O)NCc1ccc(Cl)c(-c2nc(O)nc(-c3ccc(C(F)(F)F)c(C)c3)n2)c1)C(F)(F)F", "note": "[Example 1-148]", "IC50": 1700}
{"smiles": "Cc1cc(-c2nc(O)nc(-c3cc(CNC(=O)C4(C(F)(F)F)CC4)ccc3Cl)n2)ccc1C(F)(F)F", "note": "[Example 1-149]", "IC50": 800}
{"smiles": "CCc1cc(-c2nc(O)nc(-c3cc(CNC(=O)[C@@](C)(OC)C(F)(F)F)ccc3Cl)n2)ccc1F", "note": "[Example 1-151]", "IC50": 400}
{"smiles": "CCc1cc(-c2nc(O)nc(-c3cc(CNC(=O)C4(C(F)(F)F)CC4)ccc3Cl)n2)ccc1F", "note": "[Example 1-152]", "IC50": 400}
{"smiles": "CC(C)(C(=O)NCc1ccc(Cl)c(-c2nc(O)nc(-c3ccc(F)c(Cl)c3)n2)c1)C(F)(F)F", "note": "[Example 1-153]", "IC50": 500}
{"smiles": "CCCOc1ccc(-c2nc(O)nc(-c3cc(CNC(=O)C4(C(F)(F)F)CC4)ccc3Cl)n2)cc1", "note": "[Example 1-154]", "IC50": 500}
{"smiles": "CCC[C@H](C)Oc1ccc(-c2nc(O)nc(-c3cc(CNC(=O)C(C)(C)C(F)(F)F)ccc3Cl)n2)cc1", "note": "[Example 1-155]", "IC50": 3500}
{"smiles": "CCC[C@@H](C)Oc1ccc(-c2nc(O)nc(-c3cc(CNC(=O)C(C)(C)C(F)(F)F)ccc3Cl)n2)cc1", "note": "[Example 1-156]", "IC50": 4100}
